Data taken from US20020150540A1, “Allergen neutralization compositions containing aluminum ions” (priority 2001, published 2002).

Key:
[1] = molecular target: T1, Der f 1 (Dermatophagoides farinae, UniProt P16311); test: ELISA efficacy determination protocol, allergen neutralization versus Der f 1; assay type: biochemical; conditions: for % of Allergen Neutralized: Versus Der f 1, 0.26 wt.% active ion in composition before sample preparation, pH 3.5, normalized to water control
T1 construct: Add 1.0 ml of 20 ug/ml Dermatophagoides farinae mite extract; from tissue; host or cells: Dermatophagoides farinae mite extract (crude)
T1 sequence (P16311 99-321): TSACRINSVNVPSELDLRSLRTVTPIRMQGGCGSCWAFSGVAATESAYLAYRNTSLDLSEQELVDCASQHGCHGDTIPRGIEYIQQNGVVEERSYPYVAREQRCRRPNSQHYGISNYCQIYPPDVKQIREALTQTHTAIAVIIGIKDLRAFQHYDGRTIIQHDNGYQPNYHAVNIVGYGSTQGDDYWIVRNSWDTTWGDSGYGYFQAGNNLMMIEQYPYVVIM
Text: (§1) The efficacy of an allergen neutralization composition can be determined by the ELISA protocol. Enzyme-linked immunosorbent assay (“ELISA”) is a highly sensitive assay technique for detection and measurement of antigens or antibodies in solution. The assay uses enzyme-linked antigens or antibodies to amplify an antigen-antibody reaction. A single enzyme-linked antibody-antigen complex can convert orders of magnitude more of colorless substrate molecules into detectable colored products, thus considerably amplifying the original antigen-antibody reaction. The antigen or antibody is adsorbed onto the surface of the well of a microtiter plate, and all the relevant reactions take place in solution inside the well. While the following protocol will be easily understood by those skilled in the art, for a more detailed explanation please see Konishi, E. and Uehara, K. Enzyme-linked immunosorbent assay for quantifying antigens of Dermatophagoides farinae and D. pteronyssinus (Acari: Pyroglyphidae) in house dust samples, 1990, Entomologist Society of America, 27 (6), p. 993-998.
(§2) It is understood that those skilled in the art of allergen suppression will be aware of numerous variations to the protocol given below. For example, the monoclonal antibody may be substituted with a similar antibody, for example Der f 1 for Der f 2. But a standard, in this case water, is used and the results for the samples that contain active ingredients are normalized against the standard and the results reported as percentage of allergen remaining. That is, the amount of allergen that is not neutralized. Thus, the allergen neutralization results for similar, but not identical antibodies should be substantially the same when normalized to the standard. Both Der f 1 and Der f 2 were tested for various compositions. Der f 1 was chosen as the standard for the present Efficacy Determination Protocol.
(§3) At least two samples are prepared. One sample contains only distilled water and samples of one or more allergen neutralization compositions containing the allergen neutralization active, for example Al2(SO4)3, tannin, etc. The samples are all treated according to the same protocol, and the distilled water sample is used as the control. All samples are prepared as follows:
(§4) 1) Add 1.0 ml of 20 ug/ml Dermatophagoides farinae mite extract to 0.8 ml of the sample composition (either the allergen neutralization composition or water for the control). Mix well and let sit for 1 hour at room temp.
(§5) 2) Add 2.2 ml of 20% skim milk in Phosphate Buffer Saline (PBS).
(§6) 3) Mix well by vortexing and centrifuge at 12000 rpm (approx. 17000×g) for 1 hour.
(§7) 4) The supernatant is used for the ELISA protocol.
(§8) Each well of a microplate is coated at 4° C. overnight with 100 μl of Der f 2 monoclonal antibody (clone 15E11, from Asahi Breweries., AB-A-4) at a protein concentration of 2 μg per ml of Phosphate Buffer Saline (PBS), pH 7.4 containing 0.1% sodium azide. The monoclonal antibody is discarded and the plate is incubated with 100 μl of 1% BSA PBS containing 0.1% sodium azide for 1 hour. The plate is washed 3 times with PBS containing 0.05% Tween 20 (PBS-T). 100 μl of an allergen sample is added and incubated for 1 hour at 37° C.
(§9) Use 3×dilutions of a reference Dermatophagoides farinae crude extract (commercially available from LSL) to make the standard curve. The curve is made using 6.9 nanogram-mite extract equivalent/ml to 5 microgram-mite extract equivalent/ml. Wash plate with PBS-T for 3 times. 100 μl of Horse Radish Peroxidase (HRP) conjugated anti Der f 2 antibody (clone 13A4) is added at 40 ng/ml and the plate is incubated at 37° C. for 1 hour. The plate is then washed with PBS-T 3 times and then washed with water 3 times. The wells are incubated with 100 μl of o-phenylene diamine at 2.0 mg/ml of 0.1M phosphate buffer (pH 6.2) containing 0.03% H2O2. The enzyme reaction is terminated by adding 50 μl of 2 M H2SO4.
(§10) The absorbance of the sample is read at 490 nm with a cell length of 1 cm. […]

[2] = molecular target: T2, Der f 2 (Dermatophagoides farinae, UniProt Q00855); test: ELISA efficacy determination protocol, allergen neutralization versus Der f 2; assay type: biochemical; conditions: 0.26 wt.% active ion in composition before sample preparation, pH 3.5, normalized to water control
T2 construct: Add 1.0 ml of 20 ug/ml Dermatophagoides farinae mite extract; from tissue; host or cells: Dermatophagoides farinae mite extract (crude)
T2 sequence (Q00855 18-146): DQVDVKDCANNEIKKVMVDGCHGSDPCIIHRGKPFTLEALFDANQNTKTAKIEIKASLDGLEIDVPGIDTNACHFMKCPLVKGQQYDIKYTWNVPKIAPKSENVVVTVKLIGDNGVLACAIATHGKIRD
Text: as §1, §2, §3, §4, §5, §6, §7, §8, §9, §10

Row | Compound | % of Allergen Neutralized [1] [%] | % of Allergen Neutralized [2] [%] | performance at deactivating dust mite allergens ([1]; statement in words on Table I)
1 | O=S(=O)([O-])[O-].O=S(=O)([O-])[O-].O=S(=O)([O-])[O-].[Al+3].[Al+3] [Al2(SO4)3] | 66 | 6 | 
2 | CC(O)C(=O)[O][Al]([O]C(=O)C(C)O)[O]C(=O)C(C)O (stereo not shown) [Al Lactate, reference compound] | 30 | 17 | 
3 | O=[N+]([O-])[O-].O=[N+]([O-])[O-].O=[N+]([O-])[O-].[Al+3] [Al(NO3)3] | 93 | 50 | 
4 | [Cl][Al]([Cl])[Cl] [AlCl3] | 85 | 17 | 
5 | O=S(=O)([O-])[O-].O=S(=O)([O-])[O-].[Al+3].[K+] [AlK(SO4)2] | 65 | 23 | 
6 | aluminum chlorohydrate [Al(OH)Cl2, reference compound] | 59 | 3 | relatively poor performance
